Laboratory results taken from patent publication US10434092B2, “Dosage regimen for an alpha-isoform selective phosphatidylinositol 3-kinase inhibitor” (Novartis AG, priority 2013, dated 2019).
Values joined by “and” are separate entries in the source; they are usually repeats but may differ in a detail not shown here. Equal values may be shown once.

Experiments:
S473P-Akt [1] = test: In vivo S473P-Akt inhibition in Rat1-myr-p110α tumors (RPPA) versus tumor drug concentration; set-up: species or system nude mice and rats
Protocol: (§1) Rat1-Myr-p110α tumors were established by subcutaneous injection of […] in 100 μL HBSS (Sigma #H8264) into the right flank of nude mice or nude rats. For the efficacy experiments, treatments were initiated when the mean tumor volumes were approx. 300 mm^3 (14 to 15 days post tumor cells injection).
(§2) Blood samples were collected at different time points post the last treatment (1 hour, 2 hour, 4 hour, 8 hour, 12 hour, 16 hour and 24 hour, n=2-3 per time point) into tubes coated with K-EDTA. Blood samples were centrifuged and collected plasma immediately frozen at −80° C. until final processing. Tumors were collected at sacrifice at 7 time points (1 hour, 2 hour, 4 hour, 8 hour, 12 hour, 16 hour and 24 hour, n=2-3 per time point), snap frozen and kept at −80° C. until final processing.
After dissection, the tumors were snap-frozen in liquid nitrogen and stored at −80° C. Frozen tumors were pulverized using a Retsch ball mixer mill MM20 (Arlesheim, Switzerland) with metal cylinders that were pre-cooled to −80° C. in a freezer. Powder was scrapped from metal cylinders on dry ice and transferred into pre-cooled 1.5 mL Eppendorf tubes while avoiding melting.
(§3) Following addition of 25 μL of internal standard (1 μg/mL) to analytical aliquots (25 μL) of plasma or (20 mg) tumor powder, the proteins were precipitated by the addition of 200 μL acetonitrile. The supernatant were transferred in a fresh vial. After evaporation to dryness the samples were re-dissolved in 60 μL acetonitrile/water (1/1 v/v). An aliquot (5 μL) of this solution was separated on a ACQUITY UPLC BEH C18 column (Waters™ 1.7 μm particle size, 2.1×50 mm) with a mobile phase consisting of a mixture of 0.1% formic acid in water (solvent A) and 0.1% formic acid in acetonitrile (solvent B). Gradient programming was used with a flow rate of 600 μL/min. After equilibration with 95% solvent A, 5 μL of sample was injected. Following a latency period of 0.25 min, the sample was eluted with a linear gradient of 5-100% solvent B over a period of 0.65 minutes followed by a 0.35 minutes hold. The column was prepared for the next sample by re-equilibrating over 0.25 minutes to the starting conditions. […]
Each sample was vortexed and centrifuged for 10 minutes at 10,000 rpm. […] The protein concentrations were quantified using the Coomassie Plus Kit (#23236 Thermo Scientific, Rockford, Ill., USA) according to the protocol of the manufacturer. The diluted samples were transferred into a 96 well plate (#269620, NUNC) and the absorbance was measured at 595 nm using a SpectraMAX Plus plate reader from Molecular Devices. The Protein amount was calculated using the Softmax Pro 5.0 software (Molecular Devices, USA) and then normalized on 1 mg/mL using the corresponding lysis buffer. […]

Plasma protein binding = format: in vitro ADME; settings: mouse, read-out: plasma protein binding (PPB) (converted)
S473P-Akt [2] = test: In vitro cellular S473P-Akt inhibition; format: cell-based
Rat1-myr-p110α tumor [3] = test: Antitumor activity in the Rat1-myr-p110α tumor model, nude mice; format: in vivo; settings: oral
Protocol: (§4) Experiments were performed in female Hsd: Athymic Nude-nu CPB mice (Harlan Winkelmann, Germany). Animals were between 12 and 14 weeks of age at treatment start and housed under Optimized Hygienic Conditions (OHC) in Makrolon type III cages (max. 5 animals per cage) with free access to food and water. In addition, experiments were also performed in female nude Rowett rats Hsd: RH-Fox1mu (Harlan (The Netherlands). Animals were 6-9 weeks of age at time of application of the compound. Animals were housed under Optimized Hygienic Conditions in Makrolon type III cages (max. 2 animals per cage) with free access to food and water. They were allowed to adapt for at least 6 days before the experiment was started.
(§5) Rat1-Myr-p110α cells were grown in Dulbecco's Modified Eagle Medium (DMEM) culture medium containing 4.5 g/l glucose supplemented with 10% heat-inactivated fetal calf serum (FCS), 2 mM L-glutamine, 1 mM sodium pyruvate and incubated at 37° C. in a 5% CO2 humidified atmosphere. Cells were harvested with trypsin-EDTA, re-suspended in culture medium (with additives) and counted with a Casy® system. Finally, cells are centrifuged, suspended in ice-cold Hanks' balanced salt solution (HBSS) at a concentration of 3×10^7 cells/ml. Cell culture reagents were purchased from BioConcept (Allschwil, Switzerland).
as §1
(§6) Fresh suspensions were prepared once every 4 days and stored at 4° C.
(§7) Tumor volumes were measured with calipers and determined according to the formula: length×diameter^2×[…]/6. In addition to presenting changes of tumor volumes over the course of treatments, antitumor activity is expressed as T/C % (mean change of tumor volume of treated animals/mean change of tumor volume of control animals)×100. Regressions (%) were calculated according to the formula ((mean tumor volume at end of treatment−mean tumor volume at start of treatment)/mean tumor volume at start of treatment)×100. Body weights and tumor volumes were recorded two to three times a week.

Rat1-myr-p110α tumor [4] = test: Antitumor activity in the Rat1-myr-p110α tumor model, nude rats; format: in vivo; settings: nude rat, oral
Protocol: as §4, §5, §1, §6, §7

Rat1-myr P110a tumors = test: PK/PD/efficacy relationship (time over in vivo IC80 versus anti-tumor efficacy); set-up: species or system mice and rats
Source text: Phoenix WinNonlin 6.3 (Pharsight) was used to simulate the mean plasma concentration time profiles after multiple dosing using the non-compartmental nonparametric superposition approach of data generated either from a mouse or rat efficacy study. The predictions are based upon an accumulation ratio computed from the terminal slope (Lambda Z), allowing predictions from simple or complicated dosing schedules.
FIG. 6 provides the relationship between exposure (as measured by time over the in vivo IC80) and anti-tumor efficacy. Further, a nearly linear relationship is identified between the anti-tumor efficacy magnitude and duration of drug exposure (as measured by time over the in vivo IC80) over the IC80 (R^2=0.89; FIG. 7).

[5] = Modulation of glucose and insulin levels, nude mice; format: in vivo; settings: versus plasma drug concentration
[6] = Modulation of glucose and insulin levels, nude rats; format: in vivo; settings: versus plasma drug concentration
[7] = PK/PD/tolerability relationship (time above hyperglycemia threshold versus body weight loss); format: in vivo, nude mice and rats; settings: mice and rats, threshold 20 μmol/L mice
Source text: From this relationship, it is understood that the compound exposure levels should be sustained for no more than 35% of the dosing interval above the hyperglycemia cut-off to maintain body weight loss below 5% in mice and rats.

Human plasma exposure = format: in vivo; settings: po, human dose 300-350 mg/day p.o.
Protocol: The corresponding total dose for qd in continuous daily schedule p.o. dose would be 14 mg/kg.

[8] = Pharmacokinetics after oral administration, nude mice; format: in vivo; settings: nude mice, 12.5, 25 and 50 mg/kg qd
Protocol: as §2
as §3, with “hold.” for “hold. The column was prepared for the next sample by re-equilibrating over 0.25 minutes to the starting conditions.”

[9] = Pharmacokinetics after oral administration, nude rats; format: in vivo; settings: nude rats, 12.5, 25, 40 and 80 mg/kg qd
Protocol: as §2
as §3, with “hold.” for “hold. The column was prepared for the next sample by re-equilibrating over 0.25 minutes to the starting conditions.”

[10] = tested on: advanced solid malignancies carrying an alteration in the PIK3CA gene; settings: patients treated at ≥270 mg/day, oral, continuous daily schedule; breast, colorectal, endometrial, cervical cancer (1 patient each); as of Feb. 15, 2013; cited from earlier work
[11] = once or twice per day continuous daily schedule, oral; cited from earlier work
Vps34 = Vps34 (Homo sapiens, UniProt Q8NEB9); settings: cited from earlier work
mTOR = mTOR (Homo sapiens, UniProt P42345); settings: cited from earlier work
DNA-PK = DNA-PK (Homo sapiens, UniProt P78527); settings: cited from earlier work
ATR = ATR (Homo sapiens, UniProt Q13535); settings: cited from earlier work
ATR, sequence (Q13535 whole entry): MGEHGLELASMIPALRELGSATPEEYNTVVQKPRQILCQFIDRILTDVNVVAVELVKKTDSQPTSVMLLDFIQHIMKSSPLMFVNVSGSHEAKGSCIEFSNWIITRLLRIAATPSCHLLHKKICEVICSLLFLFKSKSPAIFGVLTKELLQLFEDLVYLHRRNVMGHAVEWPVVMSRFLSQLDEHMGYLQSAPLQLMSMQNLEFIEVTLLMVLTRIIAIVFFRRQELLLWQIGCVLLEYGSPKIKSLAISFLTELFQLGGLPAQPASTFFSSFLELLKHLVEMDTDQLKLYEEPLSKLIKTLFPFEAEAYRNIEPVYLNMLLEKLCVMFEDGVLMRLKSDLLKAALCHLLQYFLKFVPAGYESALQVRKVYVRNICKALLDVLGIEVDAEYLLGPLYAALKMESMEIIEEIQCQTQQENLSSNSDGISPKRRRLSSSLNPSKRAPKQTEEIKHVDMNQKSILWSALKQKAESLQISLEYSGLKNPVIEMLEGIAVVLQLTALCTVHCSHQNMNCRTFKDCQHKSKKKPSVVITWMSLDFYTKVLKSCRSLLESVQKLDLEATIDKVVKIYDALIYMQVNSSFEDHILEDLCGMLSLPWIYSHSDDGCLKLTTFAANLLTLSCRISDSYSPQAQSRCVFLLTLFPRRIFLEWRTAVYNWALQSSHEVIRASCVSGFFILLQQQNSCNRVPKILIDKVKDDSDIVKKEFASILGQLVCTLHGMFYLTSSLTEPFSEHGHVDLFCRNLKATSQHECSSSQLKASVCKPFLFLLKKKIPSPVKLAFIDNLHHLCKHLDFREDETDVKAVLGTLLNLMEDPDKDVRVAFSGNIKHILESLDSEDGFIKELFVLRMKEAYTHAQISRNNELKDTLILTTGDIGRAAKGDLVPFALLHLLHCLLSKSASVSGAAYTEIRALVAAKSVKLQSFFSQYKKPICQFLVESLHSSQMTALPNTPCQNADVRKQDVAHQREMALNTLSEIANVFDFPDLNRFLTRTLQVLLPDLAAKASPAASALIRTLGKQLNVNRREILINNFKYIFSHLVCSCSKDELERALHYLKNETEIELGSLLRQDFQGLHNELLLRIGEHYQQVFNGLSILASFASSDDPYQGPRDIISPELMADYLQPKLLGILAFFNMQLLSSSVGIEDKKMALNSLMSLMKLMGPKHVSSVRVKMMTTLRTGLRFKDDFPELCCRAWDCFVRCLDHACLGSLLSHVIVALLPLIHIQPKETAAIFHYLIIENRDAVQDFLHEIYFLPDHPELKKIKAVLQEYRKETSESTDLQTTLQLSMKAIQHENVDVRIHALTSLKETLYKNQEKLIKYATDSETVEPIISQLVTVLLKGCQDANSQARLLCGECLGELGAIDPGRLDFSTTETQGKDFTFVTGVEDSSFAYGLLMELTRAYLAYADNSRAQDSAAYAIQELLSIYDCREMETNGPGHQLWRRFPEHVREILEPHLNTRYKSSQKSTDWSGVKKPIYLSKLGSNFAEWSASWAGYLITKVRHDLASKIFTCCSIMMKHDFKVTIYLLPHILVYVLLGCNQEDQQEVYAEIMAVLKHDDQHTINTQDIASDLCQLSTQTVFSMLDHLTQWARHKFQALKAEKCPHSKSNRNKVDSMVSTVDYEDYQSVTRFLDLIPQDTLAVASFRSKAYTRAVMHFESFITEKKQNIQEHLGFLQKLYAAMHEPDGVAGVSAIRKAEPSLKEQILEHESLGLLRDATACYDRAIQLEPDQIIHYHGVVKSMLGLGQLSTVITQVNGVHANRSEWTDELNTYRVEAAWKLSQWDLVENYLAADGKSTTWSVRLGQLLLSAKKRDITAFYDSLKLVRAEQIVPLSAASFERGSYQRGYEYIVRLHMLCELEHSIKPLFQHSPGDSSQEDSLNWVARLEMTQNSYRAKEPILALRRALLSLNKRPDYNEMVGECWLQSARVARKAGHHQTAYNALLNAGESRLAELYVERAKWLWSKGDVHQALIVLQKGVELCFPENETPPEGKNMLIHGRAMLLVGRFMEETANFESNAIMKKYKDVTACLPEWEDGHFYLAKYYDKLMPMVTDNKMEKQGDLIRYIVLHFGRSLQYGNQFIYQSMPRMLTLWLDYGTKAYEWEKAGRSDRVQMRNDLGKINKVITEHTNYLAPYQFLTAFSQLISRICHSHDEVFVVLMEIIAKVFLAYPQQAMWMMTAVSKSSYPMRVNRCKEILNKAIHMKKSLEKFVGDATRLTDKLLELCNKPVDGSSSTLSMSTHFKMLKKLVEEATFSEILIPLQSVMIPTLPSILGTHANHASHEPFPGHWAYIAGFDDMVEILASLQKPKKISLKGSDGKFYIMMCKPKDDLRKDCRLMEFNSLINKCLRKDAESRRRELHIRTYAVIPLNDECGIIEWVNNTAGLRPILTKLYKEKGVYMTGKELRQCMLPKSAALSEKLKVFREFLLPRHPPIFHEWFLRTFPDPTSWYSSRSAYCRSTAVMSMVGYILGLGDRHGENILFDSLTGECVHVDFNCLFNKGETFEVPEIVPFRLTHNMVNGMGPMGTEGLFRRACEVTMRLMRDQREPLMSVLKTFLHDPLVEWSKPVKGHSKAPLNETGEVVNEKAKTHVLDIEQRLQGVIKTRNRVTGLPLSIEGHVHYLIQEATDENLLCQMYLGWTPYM
ATR, sequence (Q8WXE1 whole entry partner): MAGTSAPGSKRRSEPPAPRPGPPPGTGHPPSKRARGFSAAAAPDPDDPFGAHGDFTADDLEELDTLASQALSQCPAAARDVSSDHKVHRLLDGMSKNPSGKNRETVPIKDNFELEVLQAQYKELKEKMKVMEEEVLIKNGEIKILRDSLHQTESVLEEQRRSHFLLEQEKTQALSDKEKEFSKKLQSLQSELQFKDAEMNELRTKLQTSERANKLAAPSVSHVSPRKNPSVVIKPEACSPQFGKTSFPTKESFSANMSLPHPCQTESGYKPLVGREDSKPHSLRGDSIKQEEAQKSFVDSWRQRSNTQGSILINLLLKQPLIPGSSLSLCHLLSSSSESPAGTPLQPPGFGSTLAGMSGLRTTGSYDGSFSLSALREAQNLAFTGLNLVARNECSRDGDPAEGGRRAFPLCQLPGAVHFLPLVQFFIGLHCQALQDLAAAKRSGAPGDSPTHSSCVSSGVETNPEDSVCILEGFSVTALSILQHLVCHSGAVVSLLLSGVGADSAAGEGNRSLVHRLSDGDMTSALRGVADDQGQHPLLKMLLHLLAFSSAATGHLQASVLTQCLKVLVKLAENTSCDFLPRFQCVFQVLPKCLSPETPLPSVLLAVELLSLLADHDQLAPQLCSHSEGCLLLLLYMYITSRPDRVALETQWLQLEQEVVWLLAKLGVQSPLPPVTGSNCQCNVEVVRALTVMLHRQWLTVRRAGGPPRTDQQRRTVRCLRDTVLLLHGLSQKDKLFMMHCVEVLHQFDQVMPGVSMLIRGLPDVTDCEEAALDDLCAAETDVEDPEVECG

Vps34, sequence (Q8NEB9 whole entry, species assumed): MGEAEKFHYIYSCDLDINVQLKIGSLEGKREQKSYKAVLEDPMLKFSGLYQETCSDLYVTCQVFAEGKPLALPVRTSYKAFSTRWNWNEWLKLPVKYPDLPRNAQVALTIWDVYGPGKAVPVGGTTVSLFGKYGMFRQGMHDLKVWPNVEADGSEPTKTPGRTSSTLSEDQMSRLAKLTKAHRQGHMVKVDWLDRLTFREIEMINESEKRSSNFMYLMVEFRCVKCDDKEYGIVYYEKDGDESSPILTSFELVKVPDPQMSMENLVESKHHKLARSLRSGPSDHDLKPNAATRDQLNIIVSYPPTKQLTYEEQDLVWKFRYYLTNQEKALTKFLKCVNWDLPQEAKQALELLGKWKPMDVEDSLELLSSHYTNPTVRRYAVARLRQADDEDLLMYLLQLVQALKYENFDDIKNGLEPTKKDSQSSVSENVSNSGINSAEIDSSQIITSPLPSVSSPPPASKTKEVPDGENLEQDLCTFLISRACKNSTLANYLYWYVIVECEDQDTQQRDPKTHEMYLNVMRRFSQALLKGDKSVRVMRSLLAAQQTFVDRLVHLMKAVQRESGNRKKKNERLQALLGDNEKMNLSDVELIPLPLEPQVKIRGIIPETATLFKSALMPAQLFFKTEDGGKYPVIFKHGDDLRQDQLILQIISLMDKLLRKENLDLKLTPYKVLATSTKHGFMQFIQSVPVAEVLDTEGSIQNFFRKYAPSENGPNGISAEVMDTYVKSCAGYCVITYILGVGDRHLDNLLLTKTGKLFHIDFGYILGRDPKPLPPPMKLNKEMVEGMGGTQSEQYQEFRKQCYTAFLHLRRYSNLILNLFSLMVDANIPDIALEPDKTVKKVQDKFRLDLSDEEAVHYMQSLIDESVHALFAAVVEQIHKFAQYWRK

For `Cc1nc(NC(=O)N2CCC[C@H]2C(N)=O)sc1-c1ccnc(C(C)(C)C(F)(F)F)c1` [Compound A, (S)-Pyrrolidine-1,2-dicarboxylic acid 2-amide 1-({4-methyl-5-[2-(2,2,2-trifluoro-1,1-dimethyl-ethyl)-pyridin-4-yl]-thiazol-2-yl}-amide)], which IC50 (S473P-Akt [1]; Mus musculus, read-out: in vivo IC50, tumor concentration giving 50% S473P-Akt inhibition) is on record?
The IC50 was 600 nM.

What about the IC80 (S473P-Akt [1]; Mus musculus, read-out: in vivo IC80 corrected for plasma protein binding) of the same compound?
The IC80 was 352 nM.

And the IC80 (S473P-Akt [1]; Mus musculus, tumor concentration, versus controls, Rat1-myr-p110α tumors, read-out: in vivo IC80, tumor concentration giving 80% S473P-Akt inhibition)?
Its IC80 is 4000 nM.

And the IC50 (S473P-Akt [1]; corrected for mouse PPB, read-out: in vivo IC50 corrected for plasma protein binding)?
Its IC50 is 53 nM.

And the fraction unbound (Plasma protein binding)?
The fraction unbound was 0.088.

What about the IC50 (S473P-Akt [2]) of the same compound?
The IC50 was 74 nM.

What about the IC80 (S473P-Akt [2]) of the same compound?
The IC80 was 301 nM.

What about the “Efficacy T/C (observed)” value (Rat1-myr-p110α tumor [3]; 6.25 mg 2qd) of the same compound?
The value was 0.02.

And the “Efficacy T/C (observed)” value (Rat1-myr-p110α tumor [3]; 6.25 mg qd)?
The value was 0.19.

And the “Efficacy Regression (observed)” value (Rat1-myr-p110α tumor [3]; 12.5 mg 2qd)?
The value was −0.55.

What about the “Efficacy T/C (observed)” value (Rat1-myr-p110α tumor [3]; 12.5 mg qd) of the same compound?
Its value is 0.09.

What about the “Efficacy Regression (observed)” value (Rat1-myr-p110α tumor [3]; 20 mg 2qd) of the same compound?
The value was −0.80.

What about the “Efficacy Regression (observed)” value (Rat1-myr-p110α tumor [3]; 25 mg qd) of the same compound?
Its value is −0.53.

What about the “Efficacy Regression (observed)” value (Rat1-myr-p110α tumor [3]; 40 mg 2qd) of the same compound?
The value was −0.86.

What about the “Efficacy Regression (observed)” value (Rat1-myr-p110α tumor [3]; 50 mg qd) of the same compound?
Its value is −0.65.

What about the “Efficacy T/C (observed)” value (Rat1-myr-p110α tumor [4]; 6.25 mg qd) of the same compound?
The value was 0.22.

What about the “Efficacy T/C (observed)” value (Rat1-myr-p110α tumor [4]; 12.5 mg qd) of the same compound?
The value was 0.05.

What about the “Efficacy Regression (observed)” value (Rat1-myr-p110α tumor [4]; 25 mg qd) of the same compound?
The value was −0.65.

What about the “Efficacy Regression (observed)” value (Rat1-myr-p110α tumor [4]; 50 mg qd) of the same compound?
The value was −0.80.

What about the “fraction of the dosing interval with 80% inhibition of Akt phosphorylation required to induce tumor stasis” value (Rat1-myr P110a tumors) of the same compound?
Its value is “at least 25 % of the dosing interval”.

What about the insulin plasma levels [5] of the same compound?
The insulin plasma levels was “increased proportionally”.

What about the insulin plasma levels [6] of the same compound?
Its insulin plasma levels is “increased proportionally”.

And the “fraction of the dosing interval above the hyperglycemia cut-off that maintains body weight loss below 5%” value [7]?
Its value is “no more than 35 % of the dosing interval”.

What about the AUC (Human plasma exposure) of the same compound?
The AUC was 35000 ng·h/mL and 80 µM·h.

What about the Cmax (Human plasma exposure) of the same compound?
The Cmax was 3500 ng/mL and 8 µM.

What about the “dose linearity of pharmacokinetics” value [8] of the same compound?
Its value is “linear”.

And the “dose linearity of pharmacokinetics” value [9]?
Its value is “linear”.

What about the clinical response [10] of the same compound?
The clinical response was “confirmed partial responses”.

What about the decreased appetite [11] of the same compound?
Its decreased appetite is 34 % of patients.

And the diarrhea [11]?
The diarrhea was 35 % of patients.

And the hyperglycemia [11]?
Its hyperglycemia is 49 % of patients.

What about the nausea [11] of the same compound?
Its nausea is 43 % of patients.

And the rash and hypersensitivity [11]?
Its rash and hypersensitivity is 34 % of patients.

What about the “inhibitory activity against Vps34” value (Vps34) of the same compound?
The value was “lacks inhibitory activity”.

What about the “inhibitory activity against mTOR” value (mTOR) of the same compound?
The value was “lacks inhibitory activity”.

And the “inhibitory activity against DNA-PK” value (DNA-PK)?
The value was “lacks inhibitory activity”.

What about the “inhibitory activity against ATR” value (ATR) of the same compound?
The value was “lacks inhibitory activity”.
